Structures are written as SMILES.

In this assay the test system is paw of rats. In words: Anti-inflammatory test: carrageenan-induced rat paw swelling (plethysmography), oral. It is filed as in vivo. As to conditions: oral route one hour before carrageenan injection, swelling determined 4 hours after injection, versus control group, dose not given. As to the method:
The compounds to be tested are given as freshly prepared solutions or suspensions by oral route one hour before injecting the paw of rats with carrageenan which is a known inflammatory agent.
The inflammatory agent (carrageenan) either in solution or suspension is then injected into the plantar tissue of the right hind paw of each rat, the left paw remaining untreated and serving as control. Each animal receives, for example, 0.05 ml of an aqueous solution containing 1% by weight of carrageenan and 0.9% of sodium chloride.
4 Hours after the injection of the inflammatory agent, the importance of swelling is determined by plethysmography and is expressed as a percent of the volume of the control paw.
The anti-inflammatory effect expressed as a percentage of inhibition is obtained by comparison between rats treated with the anti-inflammatory compound and a control group of rats.
Background: The carrageenan paw model is a standard test of acute inflammation.
As for `O=S1(=O)N=C(c2ccccc2)N(c2cccc(C(F)(F)F)c2)c2ccncc21` [Example 1, 3-phenyl-4-metatrifluoromethylphenyl-4H-pyridino-[4,3-e]-1,2,4-thiadiazine-1,1-dioxide], the “% inhibition of acute oedema” value is reported as 53.6%. In the case of `O=S1(=O)N=C(c2ccc(Cl)cc2)N(c2cc(Cl)cc(Cl)c2)c2ccncc21` [Example 2, 3-parachlorophenyl-4-(3',5'-dichlorophenyl)-4H-pyridino-[4,3-e]-1,2,4-thiadiazine-1,1-dioxide] it was 57%; in that of `CCc1cccc(N2C(c3ccc(Cl)cc3)=NS(=O)(=O)c3cnccc32)c1` [Example 3, 3-parachlorophenyl-4-(3'-ethylphenyl)-4H-pyrido-[4,3-e]-1,2,4-thiadiazine-1,1-dioxide], 60%. `COc1cccc(N2C(c3ccccc3Cl)=NS(=O)(=O)c3cnccc32)c1` [Example 4, 3-orthochlorophenyl-4-(3-methoxyphenyl)-4H-pyrido-[4,3-e]-1,2,4-thiadiazine-1,1-dioxide]: the “% inhibition of acute oedema” value came to 40%.

The values above are taken from patent publication US4042693A, “Derivatives of 1,2,4-thiadiazine” (A. Christiaens Societe Anonyme, priority 1975, dated 1977).
